Measurements taken from publication PMC5146284, “Molecular imaging with engineered physiology” (Nature Communications, 2016).

Key:
TEV protease = assay: Proteolytic cleavage by TEV protease (SDS-PAGE); type: biochemical; conditions: 10 µM sensor, 2 h, 37 °C
Method: (§1) Proteolytic cleavage reactions
(§2) Supplementary Fig. 4. Proteolytic cleavage of candidate sensors and assessment by bioas-say. (a-e) Cleavage reaction products after incubation of 10 µM sensor with or without enzyme for 2 h at 37 °C. (a) MALDI mass spectrum of sensor (1) after incubation with or without FAP […]
(§3) (b) SDS-PAGE analysis of sensor
(§4) (c) SDS-PAGE analysis of sensor (3) after incubation with different concentrations of EK light […]
(§5) (d) SDS-PAGE analysis of sen- […]
(§6) and liberation of free CGRP. (f-k) Dose-response curves of uncleaved and cleaved sensors in […]
(§7) (f) Dose-response curves for Sensors (2-4) at final assay concentrations up to 10 uM (addition of 10 µL of 100 µM solution to 90 µL medium per well in bioassay) show no receptor activation by uncleaved GFP-linker-CGRP-G sensors even at 10-fold higher concentrations than were used in cleavage assays (g-k). (g-k) Dose-response curves for reaction products from (a-e). Error bars in (f-k) denote SD of measurements performed in triplicate.
(§8) (1 picture or pasted object on this page, not shown here)

rat brain (thalamus) = assay: MRI of haemodynamic response to intracranial CGRP infusion; type: in vivo, rat (Sprague-Dawley); conditions: inferred from MRI time course during intracranial infusion
Text: Haemodynamic contrast provided sufficient resolution to monitor convective spread of the imaging agent from the site of infusion (Supplementary Fig. 1b).
Magnetic resonance imaging
Nineteen Sprague-Dawley rats were used for in vivo MRI experiments. […]
Animals were scanned by MRI to measure the changes in haemodynamic contrast following intracranial injections. […] Breathing rate and end-tidal expired isoflurane were continuously monitored. […]
Signals were averaged over six animals in 1.5 mm square regions of interest (ROIs) positioned around the infusion cannulae tips in each animal (cf. Fig. 2d); gray shading denotes standard errors as a function of time. (b) Time courses from multiple approximately concentric ROIs (diagrammed at left) were analyzed to determine whether hemodynamic MRI has sufficient spatial resolution to monitor convection of CGRP from the infusion site. For each ROI, the delay between the start of infusion and the ob-servation of statistically significant signal changes from baseline was measured (color coded bars at right). […]

[1] = tested on: enterokinase (EK) light chain; assay: Proteolytic cleavage by enterokinase light chain (SDS-PAGE); type: biochemical; conditions: 10 µM sensor, 2 h, 37 °C, different EK concentrations
Method: as §1, §2, §3, §4, §5, §6, §7, §8

## cfSGFP2-ENLYFQG-CGRP-G [Sensor (2), recombinant fusion of cysteine-free GFP, a short linker, TEV protease site and non-amidated CGRP]
TEV protease
  cleavage by TEV protease: substantial but not complete cleavage

## CC(C)C[C@H](NC(=O)CNC(=O)[C@H](C)NC(=O)[C@H](CC(C)C)NC(=O)[C@H](CCCNC(=N)N)NC(=O)[C@H](Cc1cnc[nH]1)NC(=O)[C@@H](NC(=O)[C@@H](NC(=O)[C@@H]1CSSC[C@H](NC(=O)[C@H](C)N)C(=O)N[C@@H](CC(=O)O)C(=O)N[C@@H]([C@@H](C)O)C(=O)N[C@@H](C)C(=O)N[C@@H]([C@@H](C)O)C(=O)N1)C(C)C)[C@@H](C)O)C(=O)N[C@@H](CC(C)C)C(=O)N[C@@H](CO)C(=O)N[C@@H](CCCNC(=N)N)C(=O)N[C@@H](CO)C(=O)NCC(=O)NCC(=O)N[C@H](C(=O)N[C@H](C(=O)N[C@@H](CCCCN)C(=O)N[C@@H](CC(N)=O)C(=O)N[C@@H](CC(N)=O)C(=O)N[C@@H](Cc1ccccc1)C(=O)N[C@H](C(=O)N1CCC[C@H]1C(=O)N[C@H](C(=O)N[C@@H](CC(N)=O)C(=O)N[C@H](C(=O)NCC(=O)N[C@@H](CO)C(=O)N[C@@H](CCCCN)C(=O)N[C@@H](C)C(=O)N[C@@H](Cc1ccccc1)C(N)=O)C(C)C)[C@@H](C)O)C(C)C)C(C)C)C(C)C [wtCGRP, calcitonin gene-related peptide]
Rat brain (thalamus)
  removal or degradation in brain tissue: not rapidly removed or degraded in brain tissue

## cfSGFP2-DDDDK-CGRP-G [Sensor (3), recombinant fusion of cysteine-free GFP, a short linker, enterokinase site and non-amidated CGRP]
[1]
  cleavage by EK light chain: increasing cleavage with increasing concentrations
